Several values for one entry are separate records, joined by “and”; a condition that tells them apart may be missing. Equal entries are not always repeated.
Columns and labels:
Type in all cases: in vivo
[1] = tested on: L. infantum; assay: Clinical study in dogs infected with L. infantum: qPCR on spleen aspirates; settings: spleen aspirate, Glucantime 100 mg/kg dNMA SC or Fexinidazole 60 mg/kg PO once daily Days 0-27
Procedure: (§1) In a clinical study, dogs infected with L. infantum were treated with meglumine antimoniate (GLUCANTIME®, Merial) as a positive control, or FEX (Table 5). Eight blocks of two animals were formed based antibody titers and biological scores. Six dogs in each group were naturally infected by housing them in an endemic area for two years and two dogs in each group were artificially infected by intravenous administration of a known quantity of parasites recovered from the spleen of an infected dog.
(§2) The first group (FEX) was compared to the second group, which was treated with 27 mg/kg GLUCANTIME (meglumine antimoniate, or 100 mg/kg of dNMA) “GLU”), over 28 days.
(§3) Variables. The Clinical Score is an additive score of various clinical signs (body condition, lymphadenopathy, splenomegaly, appetite, behavior, mucous membrane color, dermatopathology, ocular signs, digestive signs, arthropathy) evaluated before treatment and on Days 7, 14, 21, 28, 57, 184, 219, 254, 282, 310, 345, 400 and 436. The Overall Biological Score is an additive score based on the severity of changes in hematology/chemistry values (creatinine, urine protein/creatinine, Hct, globulin, ALAT), evaluated pretreatment and on Days 28, 57, and 181. The L. infantum immunofluorescent antibody titers (IFAT) were determined from samples collected before treatment and on Days 28, 57, and 181. Finally, quantitative PCR (qPCR) for L. infantum was conducted on spleen aspirates collected before treatment and on Days 28, 57, 142, 184, and 373.

[2] = tested on: L. infantum; assay: Clinical study in dogs infected with L. infantum: Overall Biological Score; design: key: additive score of severity of hematology/chemistry changes; settings: Glucantime 100 mg/kg dNMA SC or Fexinidazole 60 mg/kg PO once daily Days 0-27
Procedure: as §1, §2, §3

[3] = tested on: L. infantum; assay: Clinical study in dogs infected with L. infantum: Clinical Score; design: key: additive score of clinical signs (body condition, lymphadenopathy, etc.); settings: Glucantime 100 mg/kg dNMA SC or Fexinidazole 60 mg/kg PO once daily Days 0-27
Procedure: as §1, §2, §3

[4] = tested on: L. infantum; assay: Clinical study in dogs infected with L. infantum: overall outcome (cure, relapse, removal of animals)
Procedure: as §1
The first group (FEX) was compared to the second group, which was treated with 27 mg/kg GLUCANTIME (meglumine antimoniate, or 100 mg/kg of dNMA) “GLU”), over 28 days. […]

[5] = tested on: L. infantum; assay: Clinical study in dogs infected with L. infantum: Overall Biological Score; design: key: additive score of severity of hematology/chemistry changes; settings: samples collected on D16 (printed in Day 28 column), Group 1 Block 8 dog removed for toxicity; Glucantime 100 mg/kg dNMA SC once daily
[6] = Day −7 (before treatment), individual dogs

meglumine antimoniate [Glucantime]
qPCR for L. infantum ([1]; Day 28, individual dogs): 4.04 log copies/mL and 3.73 log copies/mL and 5.93 log copies/mL and 5.63^3 log copies/mL and BLOQ^1 (BLOQ = Below Level of Quantification = < log 3.64 copies/mL spleen aspirate) and 5.77 log copies/mL and 6.40^2 log copies/mL and 5.81 log copies/mL
qPCR for L. infantum ([1]; Day 57, individual dogs): BLOQ (BLOQ = Below Level of Quantification = < log 3.64 copies/mL spleen aspirate) (3×) and 4.93 log copies/mL and 5.14 log copies/mL and 4.78 log copies/mL
qPCR for L. infantum ([1]; Day 142, individual dogs): BLOQ (BLOQ = Below Level of Quantification = < log 3.64 copies/mL spleen aspirate) (3×) and 4.73 log copies/mL and 5.57 log copies/mL and 3.94 log copies/mL
qPCR for L. infantum ([1]; Day 184, individual dogs): BLOQ (BLOQ = Below Level of Quantification = < log 3.64 copies/mL spleen aspirate) (2×) and 3.97 log copies/mL and 5.53 log copies/mL and 7.01 log copies/mL and 5.62 log copies/mL
qPCR for L. infantum ([1]; Day 373, individual dogs): BLOQ (BLOQ = Below Level of Quantification = < log 3.64 copies/mL spleen aspirate) and 5.23 log copies/mL and 3.83 log copies/mL
qPCR for L. infantum [1, 6]: 5.81 log copies/mL and 4.38 log copies/mL and 6.40 log copies/mL and 5.10 log copies/mL and 5.12 log copies/mL and 6.87 log copies/mL and 6.17 log copies/mL and 6.70 log copies/mL
Overall Biological Score ([2]; Day 28, individual dogs): 2 (2×) and 1 and 4 and 3 (2×) and 2^1
Overall Biological Score, group average ([2]; Day 28): 2.4
Overall Biological Score ([2]; Day 57, individual dogs): 1 (4×) and 4 (2×)
Overall Biological Score, group average ([2]; Day 57, Group 1 includes D28 data of Block 3 dog carried forward): 2.0^3
Overall Biological Score ([2]; Day 181, individual dogs): 3 (2×) and 2 (2×) and 0 and 6
Overall Biological Score, group average ([2]; Day 181, Group 1 includes D28 data of Block 3 dog carried forward): 2.7
Overall Biological Score ([2]; Day −14 (pretreatment), individual dogs): 6 and 1 (2×) and 3 (2×) and 7 and 2 (2×)
Overall Biological Score, group average ([2]; Day −14 (pretreatment)): 3.1
Clinical Score, group average ([3]; Day 7): 1.3
Clinical Score, group average ([3]; Day 14): 1.1
Clinical Score, group average ([3]; Day 21): 2.1
Clinical Score ([3]; Day 28, individual dogs): 0
Clinical Score, group average ([3]; Day 28, Group 1 includes D21 data of Block 3 dog carried forward): 1.33
Clinical Score ([3]; Day 57, individual dogs): 0
Clinical Score, group average ([3]; Day 57, Group 1 includes D21 data of Block 3 dog carried forward): 1.33
Clinical Score ([3]; Day 184, individual dogs): 0
Clinical Score, group average ([3]; Day 184): 0.0
Clinical Score ([3]; Day 219, individual dogs): 0
Clinical Score, group average ([3]; Day 219): 0.0
Clinical Score ([3]; Day 254, individual dogs): 3 and 0 (2×)
Clinical Score, group average ([3]; Day 254): 1.0
Clinical Score ([3]; Day 282, individual dogs): 3 and 0 (2×)
Clinical Score, group average ([3]; Day 282): 1.0
Clinical Score ([3]; Day 310, individual dogs): 2 and 0 (2×)
Clinical Score, group average ([3]; Day 310): 0.7
Clinical Score ([3]; Day 345, individual dogs): 0
Clinical Score, group average ([3]; Day 345): 0.0
Clinical Score ([3]; Day 400, individual dogs): 1 and 0 (2×)
Clinical Score, group average ([3]; Day 400): 0.3
Clinical Score ([3]; Day 436, individual dogs): 4 and 0 (2×)
Clinical Score, group average ([3]; Day 436): 1.3
Clinical Score [3, 6]: 2 (3×) and 0 (4×) and 3
Clinical Score, group average ([3]; Day −7 (before treatment)): 1.1
removal of animal due to deterioration ([4]; Group 1 Block 3 dog, Glucantime 100 mg/kg dNMA SC once daily Days 0-27): ^1Dog Group 1 Block 3 removed on Day 28 due to continued deterioration
removal of animal due to toxicity ([4]; Group 1 Block 8 dog, Glucantime 100 mg/kg dNMA SC once daily): ^2Dog Group 1 Block 8 removed on Day 20 due to GLUCANTIME toxicity
removal of animals due to lack of efficacy ([4]; Group 1 Blocks 2, 4, 7 dogs, Glucantime 100 mg/kg dNMA SC once daily Days 0-27): ^3Dogs Group 1 Blocks 2, 4, 7 removed after Day 184 due to lack of GLUCANTIME efficacy
Overall Biological Score [5]: 5^2
